Consider 3 compounds from ChEMBL document CHEMBL1201862, “PubChem BioAssay data set” (2004).

Test systems include SK-MEL-2; HCC 2998; NCI-H23; Malme-3M; SK-MEL-28; LOX IMVI; ACHN; HL-60; OVCAR-3; NCI-H460; UO-31; PC-3; HT-29; SF-295; SF-539; SW-620; Hs-578T; HOP-62; SNB-75; MCF7.
Common to all, as to assay: inhibition of tumour cell growth, NCI panel, 48 h

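Exposure lasted 48 hours, with cells grown in 96-well plates and compounds tested at five concentrations. GI50 = concentration required for 50% inhibition of growth.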 Calls of active or inactive are those of the source. Rule as the data show it: active = GI50 up to about 1.1 µM and inactive = higher.

Consider `C[C@H]1[C@H]2[C@H](C[C@@]3(C)C4=CC[C@H]5C(C)(C)[C@@H](OC6OCC(O)C(O)C6O)CC[C@@]56C[C@@]46CC[C@]23C)O[C@@]2(O)[C@@H]1OC(C)(C)[C@H]2O` (stereo not given in full), for which the GI50 is 5530 nM (inactive) in the assay on SK-MEL-2; 681 nM (active) in the assay on HCC 2998; 1090 nM (active) in the assay on NCI-H23; 993 nM (active) in the assay with Malme-3M; 2480 nM (inactive) in the assay on SK-MEL-28; 1480 nM (inactive) in the assay on LOX IMVI. The GI50 is 2120 nM (inactive) with ACHN; 6470 nM (inactive) in the assay with HL-60; 3010 nM (inactive) in the assay on OVCAR-3; 2120 nM (inactive) in the assay on NCI-H460; 3570 nM (inactive) in the assay with UO-31; 1070 nM (active) with PC-3. Moreover, the GI50 in the assay on HT-29 is 2610 nM (inactive); with SF-295, 429 nM (active); in the assay with SF-539, 1950 nM (inactive); with SW-620, 1130 nM (inactive); in the assay on Hs-578T, 682 nM (active); in the assay with HOP-62 it was 1780 nM (inactive). Also, the GI50 with SNB-75 is 1620 nM (inactive); with MCF7, 867 nM (active).
Take `C=CCc1cc(-c2cc(CC=C)c(O)c(CN(CCCl)CCCl)c2)cc(CN(CCCl)CCCl)c1O`: the GI50 is 22100 nM (inactive) with SK-MEL-2; 15600 nM (inactive) in the assay on HCC 2998; 6890 nM (inactive) in the assay on NCI-H23; 18700 nM (inactive) in the assay with Malme-3M; 17800 nM (inactive) in the assay on SK-MEL-28; 10300 nM (inactive) with LOX IMVI. In addition, the GI50 was 7690 nM (inactive) with ACHN; 3090 nM (inactive) in the assay on HL-60; 15200 nM (inactive) in the assay with OVCAR-3; 3790 nM (inactive) in the assay on NCI-H460; 16300 nM (inactive) in the assay on UO-31; 9080 nM (inactive) with PC-3. Further, the GI50 with HT-29 was 13700 nM (inactive); with SF-295, 13000 nM (inactive); with SF-539, 12200 nM (inactive); in the assay with SW-620, 12300 nM (inactive); in the assay on Hs-578T it was 37000 nM (inactive); with HOP-62, 14000 nM (inactive). In addition, the GI50 is 16300 nM (inactive) with SNB-75 and 5770 nM (inactive) with MCF7.
With `COc1ccc2c(c1)/C(=C\c1c(Cl)[nH]c3cc(C)c(OC)cc13)C(=O)N2`, the GI50 in the assay with SK-MEL-2 is 713 nM (active); in the assay on HCC 2998, 1640 nM (inactive); with NCI-H23, 593 nM (active); in the assay with Malme-3M, 1280 nM (inactive); in the assay with SK-MEL-28, 10600 nM (inactive); with LOX IMVI, 753 nM (active). In addition, the GI50 in the assay with ACHN was 1050 nM (active); in the assay on HL-60, 435 nM (active); in the assay on OVCAR-3 it was 347 nM (active); with NCI-H460 it was 760 nM (active); in the assay with UO-31, 3130 nM (inactive); in the assay with PC-3, 807 nM (active). The GI50 was 889 nM (active) in the assay on HT-29; 396 nM (active) in the assay with SF-295; 266 nM (active) with SF-539; 1220 nM (inactive) in the assay on SW-620; 667 nM (active) with Hs-578T; 4440 nM (inactive) with HOP-62. The GI50 with SNB-75 was 984 nM (active); in the assay on MCF7, 410 nM (active).
